For this test, the target named is T1, Recombinant human IL-1β (Homo sapiens, UniProt P01584).
T1 construct: purchased BioLegend 579404
The experiment in a line: IL-6 assay in MRC5 cells: inhibition of IL-1β induced IL-6 secretion (AlphaLISA). Particulars: inhibition of IL-1β induced IL-6 secretion in MRC5 cells; IL-1β pre-incubated 1 hour with compound; read-out: MRC5 IC50. Format: cell-based. Here is the method:
Procedure for IL-6 Assay in MRC5 Cells
The inhibition of IL-1β induced IL-6 secretion was evaluated in MRC5 cells. Recombinant human IL-1β (BioLegend 579404) at 2×EC80 concentration was prepared in seeding medium, EMEM (ATCC 30-2003) with 0.025% BSA (Sigma A9576), 1× penicillin/streptomycin (Gibco 15070-063), 1×NEAA (Gibco 11140-050), 1× GlutaMax (Gibco 35050-061), and 1× sodium pyruvate (Gibco 11360-070). 20 μL of IL-1β was added to a 384-well collagen-coated plate (Corning 354664) and pre-incubated at ambient temperature for 1 hour with 200 nL of compound dispensed using an ECHO 555 liquid handler. Human lung fibroblast MRC5 cells (ATCC CCL-171) were added at a density of 3000 cells/20 μL per well. The cells were prepared by passaging three times in growth medium, EMEM (ATCC 30-2003) with 10% fetal bovine serum (Gibco 16140-071), 1× penicillin/streptomycin (Gibco 15070-063), 1×NEAA (Gibco 11140-050), 1× GlutaMax (Gibco 35050-061), and 1× sodium pyruvate (Gibco 11360-070) in collagen-coated T175 flasks (Greiner 661950) and harvested in seeding medium after 5 minutes of 0.25% trypsin-EDTA (Gibco 25200-056) digestion. The 384-well collagen-coated plate, containing a final volume of 40 μL, was incubated at 37° C., 5% CO2 overnight. 5 μL of the conditioned medium was transferred to a 384-well AlphaLISA plate (PerkinElmer 6005350) for detection of IL-6 using the human AlphaLISA IL-6 kit (PerkinElmer AL223F) as per the manufacturer's protocol. 20 μL of the acceptor bead/biotinylated antibody mix was added to the 384-well AlphaLISA plate and incubated for 1 hour at ambient temperature. The donor bead mix was protected from light and 25 μL was added to the plate and incubated for 30 minutes at ambient temperature. The AlphaLISA plate was read on an EnVision multimode plate reader (Perkin Elmer model 2104) using the AlphaScreen setting (laser exc at 680 nm and emis at 570 nm). Dose response curves and IC50 values were analyzed using a 4-parameter logistic equation in Spotfire software (Tibco, Palo Alto, CA).

By IC50 is commonly meant the concentration needed to halve the response being measured.

Molecules are shown by their SMILES. Where a SMILES comes first, the peptide text is derived from it. [ ]: non-standard residue; d: D form. Bip(4'-COOH) = N[C@@H](Cc1ccc(-c2ccc(C(=O)O)cc2)cc1)C(=O)O; 1Nal(3S-Me) = C[C@@H](c1cccc2ccccc12)[C@H](N)C(=O)O; Phe(4-COOH) = N[C@@H](Cc1ccc(C(=O)O)cc1)C(=O)O; h3Pal(5-CN) = N#Cc1cncc(CC[C@H](N)C(=O)O)c1; Pro(4R-NH2) = N[C@H]1CN[C@H](C(=O)O)C1; 1Nal = N[C@@H](Cc1cccc2ccccc12)C(=O)O; Ala(4-THP) = N[C@@H](CC1CCOCC1)C(=O)O; hTyr = N[C@@H](CCc1ccc(O)cc1)C(=O)O; 4Pal = N[C@@H](Cc1ccncc1)C(=O)O; Orn = NCCC[C@H](N)C(=O)O; dNMeA = CN[C@H](C)C(=O)O; Dab = NCC[C@H](N)C(=O)O; Dap = NC[C@H](N)C(=O)O; Aib = CC(C)(N)C(=O)O

T1 sequence (P01584 117-269): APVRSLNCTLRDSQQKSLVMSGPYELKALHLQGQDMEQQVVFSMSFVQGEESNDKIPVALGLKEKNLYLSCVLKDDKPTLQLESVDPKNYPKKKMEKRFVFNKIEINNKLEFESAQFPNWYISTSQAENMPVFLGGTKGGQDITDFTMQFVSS

As for `C[C@@H]1C(=O)NCC(=O)N[C@@H](Cc2ccc(-c3ccc(C(=O)O)cc3)cc2)C(=O)N[C@@H](Cc2cccc3ccccc23)C(=O)N[C@@H](CCN)C(=O)NC(C)(C)C(=O)N[C@@H](CCc2ccc(O)cc2)C(=O)N[C@@H](Cc2ccc(-c3ccc(C(=O)O)cc3)cc2)C(=O)N[C@@H](Cc2c[nH]c3ccccc23)C(=O)N[C@@H](Cc2ccc(C(=O)O)cc2)C(=O)NCC(=O)N2C[C@H](N)C[C@H]2C(=O)N[C@@H]([C@@H](C)c2cccc3ccccc23)C(=O)N[C@@H](CC(=O)O)C(=O)N1C` [Example 16] (cyclo([Bip(4'-COOH)]W[Phe(4-COOH)]G[Pro(4R-NH2)][1Nal(3S-Me)]D[dNMeA]G[Bip(4'-COOH)][1Nal][Dab][Aib][hTyr])), the IC50 was found to be 0.175 nM. As for `C[C@@H]1C(=O)NCC(=O)N[C@@H](Cc2ccc(-c3ccc(C(=O)O)cc3)cc2)C(=O)N[C@@H](Cc2cccc3ccccc23)C(=O)N[C@@H](CN)C(=O)NC(C)(C)C(=O)NCC(=O)N[C@@H](Cc2ccc(-c3ccc(C(=O)O)cc3)cc2)C(=O)N[C@@H](Cc2c[nH]c3ccccc23)C(=O)N[C@@H](Cc2ccc(C(=O)O)cc2)C(=O)NCC(=O)N2C[C@H](N)C[C@H]2C(=O)N[C@@H]([C@@H](C)c2cccc3ccccc23)C(=O)N[C@@H](CC(=O)O)C(=O)N1C` [Example 17] (cyclo([Bip(4'-COOH)]W[Phe(4-COOH)]G[Pro(4R-NH2)][1Nal(3S-Me)]D[dNMeA]G[Bip(4'-COOH)][1Nal][Dap][Aib]G)), the IC50 is 0.222 nM. Turning to `C[C@@H]1C(=O)NCC(=O)N[C@@H](Cc2ccc(-c3ccc(C(=O)O)cc3)cc2)C(=O)N[C@@H](Cc2cccc3ccccc23)C(=O)N[C@@H](CN)C(=O)NC(C)(C)C(=O)N[C@@H](CCc2cncc(C#N)c2)C(=O)N[C@@H](Cc2ccc(-c3ccc(C(=O)O)cc3)cc2)C(=O)N[C@@H](Cc2c[nH]c3ccccc23)C(=O)N[C@@H](Cc2ccc(C(=O)O)cc2)C(=O)NCC(=O)N2C[C@H](N)C[C@H]2C(=O)N[C@@H]([C@@H](C)c2cccc3ccccc23)C(=O)N[C@@H](CC(=O)O)C(=O)N1C` [Example 18] (cyclo([Bip(4'-COOH)]W[Phe(4-COOH)]G[Pro(4R-NH2)][1Nal(3S-Me)]D[dNMeA]G[Bip(4'-COOH)][1Nal][Dap][Aib][h3Pal(5-CN)])), the IC50 was 0.0885 nM. Take `CC(C)C[C@@H]1NC(=O)[C@H](Cc2cccc3ccccc23)NC(=O)[C@H](Cc2ccc(-c3ccc(C(=O)O)cc3)cc2)NC(=O)CNC(=O)[C@@H](C)N(C)C(=O)[C@H](CC(=O)O)NC(=O)[C@H]([C@@H](C)c2cccc3ccccc23)NC(=O)[C@@H]2C[C@@H](N)CN2C(=O)CNC(=O)[C@H](Cc2ccc(C(=O)O)cc2)NC(=O)[C@H](Cc2c[nH]c3ccccc23)NC(=O)[C@H](Cc2ccc(-c3ccc(C(=O)O)cc3)cc2)NC(=O)CNC(=O)C(C)(C)NC1=O` [Example 19] (cyclo([Bip(4'-COOH)]W[Phe(4-COOH)]G[Pro(4R-NH2)][1Nal(3S-Me)]D[dNMeA]G[Bip(4'-COOH)][1Nal]L[Aib]G)): the IC50 turned out to be 0.118 nM. Take `C[C@@H]1C(=O)NCC(=O)N[C@@H](Cc2ccc(-c3ccc(C(=O)O)cc3)cc2)C(=O)N[C@@H](Cc2cccc3ccccc23)C(=O)N[C@@H](CCCN)C(=O)NC(C)(C)C(=O)NCC(=O)N[C@@H](Cc2ccc(-c3ccc(C(=O)O)cc3)cc2)C(=O)N[C@@H](Cc2c[nH]c3ccccc23)C(=O)N[C@@H](Cc2ccc(C(=O)O)cc2)C(=O)NCC(=O)N2C[C@H](N)C[C@H]2C(=O)N[C@@H]([C@@H](C)c2cccc3ccccc23)C(=O)N[C@@H](CC(=O)O)C(=O)N1C` [Example 20] (cyclo([Bip(4'-COOH)]W[Phe(4-COOH)]G[Pro(4R-NH2)][1Nal(3S-Me)]D[dNMeA]G[Bip(4'-COOH)][1Nal][Orn][Aib]G)): the IC50 was determined as 0.44 nM. `C[C@@H]1C(=O)NCC(=O)N[C@@H](Cc2ccc(-c3ccc(C(=O)O)cc3)cc2)C(=O)N[C@@H](Cc2ccncc2)C(=O)N[C@@H](CN)C(=O)N[C@H](C)C(=O)N[C@@H](CCc2cncc(C#N)c2)C(=O)N[C@@H](Cc2ccc(-c3ccc(C(=O)O)cc3)cc2)C(=O)N[C@@H](Cc2c[nH]c3ccccc23)C(=O)N[C@@H](Cc2ccc(C(=O)O)cc2)C(=O)NCC(=O)N2C[C@H](N)C[C@H]2C(=O)N[C@@H]([C@@H](C)c2cccc3ccccc23)C(=O)N[C@@H](CC(=O)O)C(=O)N1C` [Example 21] (cyclo([Bip(4'-COOH)]W[Phe(4-COOH)]G[Pro(4R-NH2)][1Nal(3S-Me)]D[dNMeA]G[Bip(4'-COOH)][4Pal][Dap][dA][h3Pal(5-CN)])): the IC50 is 0.0234 nM. As for `C[C@@H]1C(=O)NCC(=O)N[C@@H](Cc2ccc(-c3ccc(C(=O)O)cc3)cc2)C(=O)N[C@@H](Cc2ccncc2)C(=O)N[C@@H](CN)C(=O)N[C@H](C)C(=O)N[C@@H](CCc2ccc(O)cc2)C(=O)N[C@@H](Cc2ccc(-c3ccc(C(=O)O)cc3)cc2)C(=O)N[C@@H](Cc2c[nH]c3ccccc23)C(=O)N[C@@H](Cc2ccc(C(=O)O)cc2)C(=O)NCC(=O)N2C[C@H](N)C[C@H]2C(=O)N[C@@H]([C@@H](C)c2cccc3ccccc23)C(=O)N[C@@H](CC(=O)O)C(=O)N1C` [Example 22] (cyclo([Bip(4'-COOH)]W[Phe(4-COOH)]G[Pro(4R-NH2)][1Nal(3S-Me)]D[dNMeA]G[Bip(4'-COOH)][4Pal][Dap][dA][hTyr])), the IC50 is 0.0325 nM. Regarding `C[C@@H]1C(=O)NCC(=O)N[C@@H](Cc2ccc(-c3ccc(C(=O)O)cc3)cc2)C(=O)N[C@@H](CC2CCOCC2)C(=O)N[C@@H](CN)C(=O)N[C@H](C)C(=O)N[C@@H](CCc2cncc(C#N)c2)C(=O)N[C@@H](Cc2ccc(-c3ccc(C(=O)O)cc3)cc2)C(=O)N[C@@H](Cc2c[nH]c3ccccc23)C(=O)N[C@@H](Cc2ccc(C(=O)O)cc2)C(=O)NCC(=O)N2C[C@H](N)C[C@H]2C(=O)N[C@@H]([C@@H](C)c2cccc3ccccc23)C(=O)N[C@@H](CC(=O)O)C(=O)N1C` [Example 23] (cyclo([Bip(4'-COOH)]W[Phe(4-COOH)]G[Pro(4R-NH2)][1Nal(3S-Me)]D[dNMeA]G[Bip(4'-COOH)][Ala(4-THP)][Dap][dA][h3Pal(5-CN)])), the IC50 is 0.0112 nM. `C[C@@H]1C(=O)NCC(=O)N[C@@H](Cc2ccc(-c3ccc(C(=O)O)cc3)cc2)C(=O)N[C@@H](CC2CCOCC2)C(=O)N[C@@H](CN)C(=O)N[C@H](C)C(=O)N[C@@H](CCc2ccc(O)cc2)C(=O)N[C@@H](Cc2ccc(-c3ccc(C(=O)O)cc3)cc2)C(=O)N[C@@H](Cc2c[nH]c3ccccc23)C(=O)N[C@@H](Cc2ccc(C(=O)O)cc2)C(=O)NCC(=O)N2C[C@H](N)C[C@H]2C(=O)N[C@@H]([C@@H](C)c2cccc3ccccc23)C(=O)N[C@@H](CC(=O)O)C(=O)N1C` [Example 24] (cyclo([Bip(4'-COOH)]W[Phe(4-COOH)]G[Pro(4R-NH2)][1Nal(3S-Me)]D[dNMeA]G[Bip(4'-COOH)][Ala(4-THP)][Dap][dA][hTyr])): the IC50 amounted to 0.0291 nM.

Take `CC(C)C[C@@H]1NC(=O)[C@H](CCCCN)NC(=O)[C@H](Cc2ccc(-c3ccc(C(=O)O)cc3)cc2)NC(=O)CNC(=O)[C@@H](C)N(C)C(=O)[C@H](CC(=O)O)NC(=O)[C@H]([C@@H](C)c2cccc3ccccc23)NC(=O)[C@@H]2C[C@@H](N)CN2C(=O)CNC(=O)[C@H](Cc2ccc(C(=O)O)cc2)NC(=O)[C@H](Cc2c[nH]c3ccccc23)NC(=O)[C@H](Cc2ccc(-c3ccc(C(=O)O)cc3)cc2)NC(=O)[C@H](CCc2ccc(O)cc2)NC(=O)[C@@H](C)NC1=O` [Example 25] (cyclo([Bip(4'-COOH)]W[Phe(4-COOH)]G[Pro(4R-NH2)][1Nal(3S-Me)]D[dNMeA]G[Bip(4'-COOH)]KL[dA][hTyr])): the IC50 was 0.0542 nM.

Turning to `CC(C)C[C@@H]1NC(=O)[C@H](CCCCN)NC(=O)[C@H](Cc2ccc(-c3ccc(C(=O)O)cc3)cc2)NC(=O)CNC(=O)[C@@H](C)N(C)C(=O)[C@H](CC(=O)O)NC(=O)[C@H]([C@@H](C)c2cccc3ccccc23)NC(=O)[C@@H]2C[C@@H](N)CN2C(=O)CNC(=O)[C@H](Cc2ccc(C(=O)O)cc2)NC(=O)[C@H](Cc2c[nH]c3ccccc23)NC(=O)[C@H](Cc2ccc(-c3ccc(C(=O)O)cc3)cc2)NC(=O)[C@H](CCc2ccc(O)cc2)NC(=O)[C@@H](CO)NC1=O` [Example 26] (cyclo([Bip(4'-COOH)]W[Phe(4-COOH)]G[Pro(4R-NH2)][1Nal(3S-Me)]D[dNMeA]G[Bip(4'-COOH)]KL[dS][hTyr])), the IC50 came to 0.0688 nM.

Values taken from patent US20230406885A1, “CYCLIC PEPTIDES FOR TRAPPING INTERLEUKIN-1 BETA” (MERCK SHARP & DOHME LLC, priority 2022, published 2023).
